Experimental findings from patent US5028614A, “Hydroxymethyl-indolizidines and quinolizidines and their use as α-glucosidase I inhibitors” (Merrell Dow Pharmaceuticals Inc., priority 1990, dated 1991) are described below.

The target in this assay is α-glucosidase I. The assay is described as follows: Microtiter plate assay for α-glucosidase I activity. The class given is biochemical. As to conditions: [3H]G3M9N substrate, purified α-glucosidase I, pH 6.8, 37° C., one hour. Here is the method: The [^3 H] glucose labeled oligosaccharides substrate (G3 M9 N) for glucosidase I was prepared by metabolically labeling exponentially growing BHK cells with [^3 H]galactose in the presence of 200μg/ml of castanospermine. BHK cells grown as monolayer were treated with 200μg/ml of castanospermine in DMEM (#430-1600) supplemented with 10% heat inactivated fetal calf serum, 2 mM L-glutamine and 1X of PSN antibiotic mixture. After three hour incubation with castanospermine, [1-^3 H] galactose (10μci/ml of media) was added to label the glycoproteins and cells were allowed to grow to confluency for an additional 48 hours. At the end of labeling period, the cells were washed with cold PBS and scraped with a rubber policeman. Cell pellet was heated for 10 minutes at 100° C. and exhaustively treated with pronase (usually 72 hrs) in 50 mM Tris pH 7.5 containing 10 mM CaCl2 and 1% Pronase under toluene atmosphere to obtain glycopeptides. The glycopeptides were separated on columns of Bio-gel P-4. The glycopeptides peak produced by castanospermine treatment was pooled, treated with Endo-H to release the oligosaccharides. The oligosaccharides obtained by endo-H hydrolysis were bound to a ConA column previously washed with buffer A (50 mM Tris pH 7.5 containing 500 mM NaCl) and equilibrated with buffer B (5 mM Sodium acetate buffer pH 5.5 containing 2 mM of each CaCl2, MgCl2 and MnCl2). The oligosaccharides were then eluted with buffer B containing 100 mM α-methylmannoside. The oligosaccharides eluted from ConA column were further purified and characterized on a calibrated Biogel P-4 column (1.5×200 cm, (-) 400 mesh). The purified oligosaccharides having GLc3 Man9 GlcNAc structure were used as substrate in these studies. […]
ConA-sepharose was washed first with buffer A, then with buffer B as described above, and resuspended in buffer B (gel: buffer, 1:1) before use. […] A 150 μl aliquot of supernatant was removed and counted.

Molecules are shown by their SMILES. Counter-ions that a name gives are not always drawn.

Consider `O=C(O[C@H]1CCCN2[C@H]1[C@H](O)[C@@H](O)[C@H](O)[C@H]2CO)c1ccccc1` [XVII, [1S-(1α,2β,3α,4β,9α,9aβ) ]-octahydro-4-(hydroxymethyl)-2H-quinolizine-1,2,3,9-tetrol 9-benzoate], for which it took 29000 nM to reach half-maximal inhibition (IC50).
The value for `OC[C@@H]1[C@@H](O)[C@H](O)[C@@H](O)[C@H]2[C@@H](O)CCCN21` [Compound XXI, [1S-(1α,2β,3α,4β,9α,9aβ)]-octahydro-4-(hydroxy-methyl) -2H-quinolizine-1,2,3,9-tetrol hydrochloride] was 150 nM; that for `OC[C@@H]1[C@@H](O)[C@H](O)[C@@H](O)[C@H]2CCCN21` [Compound VII] was 300 nM.
